Results on 1 compound are retold here after PMC7876453, “Targeting Indoleamine 2,3-Dioxygenase in Cancer Models Using the Novel Small Molecule Inhibitor NTRC 3883-0” (Frontiers in Immunology, 2021).

SMILES strings stand for the structures. Read-outs that look alike come from different tables or passages of the source.

In series [1] the test system is cell lines used in this study. As to the kind of experiment: cell viability assays (ATPlite 1Step). Conditions: in parallel with the cell-based assays. In general terms: Cellular ATP, detected with luciferase, serves as a proxy for viable cell number.
Series [2] is described as follows: in vivo pharmacokinetics, rat. On the set-up: species or system Wistar rats. The note with it: Wistar, plasma; for clearance / Vd: intravenous; for Vd: read-out: Vss. How it is done: (§1) Pharmacokinetic properties of NTRC 3883-0 were determined in plasma following single oral (p.o.) and i.v. administration to male CD-1 mice (n = 6 per treatment group with three mice sampled per time point), Wistar rats (n = 3), cynomolgus monkey (n = 1) and Beagle dogs (n = 3). Formulations were prepared in DMSO, Kolliphor® EL, 5% D-mannitol in Elix water at a volume ratio of 1:1:8 for i.v. administration, and in 0.5% gelatin, 5% D-mannitol in Elix water for p.o. administration. Plasma samples were collected at eight to eleven time points up to 24 h after administration. Pharmacokinetic properties and required dosing in humans were predicted by allometric scaling by Karin Jorga Life Science Consulting (Basel, Switzerland) ( Figure S2 and Table S2 ).

Series [3] is described as follows: in vivo pharmacokinetics, dog. Details: species or system Beagle dogs. Conditions: Beagle, plasma; for clearance / Vd: intravenous; for Vd: read-out: Vss. The protocol:
as §1

A further series concerns dog whole blood. As to the kind of experiment: dog whole blood assay. The note with it: Canis lupus familiaris. The series is classed as cell-based.
The test system of series [4] is unstimulated adherent cell samples isolated from ascites of ovarian cancer patients. Briefly: Trp-catabolizing activity in unstimulated ascites cell samples. The series is classed as cell-based, human. The note with it: for IC50: Homo sapiens. The protocol:
Ascites was collected from patients with a primary diagnosis of advanced epithelial ovarian cancer during paracentesis for diagnostics or symptom relieve, or during primary debulking surgery. Ascites was filtered and cells were collected by centrifugation as described ([23]). To enrich for tumor cells, ascites cell samples were allowed to adhere overnight to tissue culture plastic. The cell samples were then cultured for 2–3 weeks in advanced RPMI medium (ThermoFisher), supplemented with 10% FBS, 1% glutamax and 1% P/S, with 2 or 3 times passaging of the cells. qPCR analyses of the MUC16, HE4, IDO1, and TDO2 genes were performed for all samples as described above. Five samples which could be cultured over multiple passages were analyzed for cell surface expression of mucin-16 and EpCAM by flow cytometry using FITC-conjugated anti-mucin-16 (AssayPro, #32189-05141) and APC-conjugated anti-EpCAM (Miltenyi, #130-111-117, RRID: AB_2657496) to assure that the cell cultures consisted of malignant cells. IDO1 mRNA and protein levels in these samples were analyzed as described above after incubation with or without 200 ng/ml IFNγ for 24 h. The collection of ascites and the research described was conducted with approval of the medical ethical committee of the Radboud university medical center and informed written consent from each subject.

[5] abbreviates: po, p.o. versus i.v., read-out: Bioavailability (F).

Consider `O=C1CN(C(=O)c2c(F)cccc2F)[C@H](c2cccc(Br)c2)N1O` [NTRC 3883-0], for which, in series [1], the cytotoxicity result was “not cytotoxic”. Besides, the half-life (usually the time needed for the level to fall by half in the phase considered) in series [2] is 3.3 h; in series [3], 2.8 h. Besides, the clearance (in general, a measure of how efficiently the substance is removed, as volume per time) was 19.1 mL/min/kg in series [2], 5.52 mL/min in series [2] (body weight 0.29 kg), 28.6 mL/min/kg in series [3] and 286 mL/min in series [3] (body weight 10 kg). Further, the Vd in series [2] (body weight 0.29 kg) worked out at 0.417 L; in series [2], 1.43 L/kg; in series [3] (body weight 10 kg), 13.6 L; in series [3], 1.36 L/kg. Besides, the bioavailability (usually the share of a dose that reaches the circulation, judged against a reference dose that is usually intravenous) was 91% in series [2] (setting [5]) and 32% in series [3] (setting [5]). Also, the 90% effect level in the series with dog whole blood (IC90) was put at 1 µM. The “inhibition of basal Trp-catabolizing activity (in words)” value in series [4] was “no or only minimal inhibition”. In addition, the IC50 (commonly the point on the concentration scale where inhibition reaches its midpoint) in series [4] (mean of samples, read-out: IC50 Mean) was > 31.6 µM; in series [4] (read-out: IC50 ASC 010), > 31.6 µM; in series [4] (read-out: IC50 ASC 013), > 31.6 µM; in series [4] (read-out: IC50 ASC 031) it was > 31.6 µM; in series [4] (read-out: IC50 ASC 041), > 31.6 µM.
